Patent US5455222A, “1-substituted-5-thiomethylthiocyanato-1H-tetrazoles, compositions containing them and their use as antimicrobial and marine antifouling agents” (The Dow Chemical Company, priority 1994, dated 1995)
Converted amounts (≈) assume the structure as drawn.

Legend:
[1] = test system: Pseudomonas aeruginosa (PRD-10); assay: Minimum inhibitory concentration (MIC), bacteria in nutrient agar; format: cell-based, Pseudomonas aeruginosa ATCC 15442; details: 48 hours
Description: (§1) The minimum inhibitory concentration (MIC) for the compounds listed in Table I is determined for 9 bacteria, using nutrient agar, and 7 yeast and fungi, using malt yeast agar. A one percent solution of the test compound is prepared in a mixture of acetone and water.
(§2) Nutrient agar is prepared at pH 6.8, representing a neutral medium, and at pH 8.2, representing an alkaline medium. The nutrient agars are prepared by adding 23 g of nutrient agar to one liter of deionized water. In addition, the alkaline medium is prepared by adjusting a 0.04M solution of N-[tris-(hydroxymethyl)methyl]glycine buffered deionized water with concentrated sodium hydroxide to a pH of 8.5.
(§3) The test tubes containing the agar are cooled in a water bath until the temperature of the agar is 48° C. Then, an appropriate amount of the one percent solution of the test compound is added (except in the controls where no compound is added) to the respective test tubes so that the final concentrations are 500, 250, 100, 50, 25, 10, 5, 2.5, 1.0 and zero parts per million of the test compound in the agar, thus having a known concentration of test compound dispersed therein. The contents of the test tubes are then transferred to respective petri plates. After drying for 24 hours, the petri plates containing nutrient agar are inoculated with bacteria and those containing malt yeast agar are inoculated with yeast and fungi.
(§4) The inoculation with bacteria is accomplished by using the following procedure. Twenty-four hour-cultures of each of the bacteria are prepared by incubating the respective bacteria in tubes containing nutrient broth for 24 hours at 30° C. in a shaker. Dilutions of each of the 24 hour-cultures are made so that nine separate suspensions (one for each of the nine test bacteria) are made, each containing 10^8 colony forming units (CFU) per mL of suspension of a particular bacteria. Aliquots of 0.3 mL of each of the bacterial suspensions are used to fill the individual wells of Steer's Replicator. For each microbial suspension, 0.3 mL was used to fill three wells (i.e., three wells of 0.3 mL each) so that for the nine different bacteria, 27 wells are filled. The Steer's Replicator is then used to inoculate both the neutral and alkaline pH nutrient agar petri plates.
(§5) The inoculated petri plates are incubated at 30° C. for 48 hours and then read to determine if the test compound which is incorporated into the agar prevented growth of the respective bacteria.
(§6) Table II lists the bacteria, yeast and fungi used in the MIC test described above along with their respective American Type Culture Collection (ATCC) identification numbers.
(§7) In Tables III and IV, the MIC values of the compounds described in Table I as compared to the MIC of a standard commercial preservative (with 1-(3-chloroallyl)-3,5,7-triaza-1-azoniaadamantane chloride as the active agent and referred to in Tables III and IV as "STANDARD I") are set forth for the bacteria organisms and yeast/fungi organisms which are listed in Table II.

[2] = test system: Pseudomonas aeruginosa (Pa); assay: as above; format: cell-based, Pseudomonas aeruginosa ATCC 10145; details: 48 hours
Description: as §1, §2, §3, §4, §5, §6, §7

[3] = test system: Salmonella choleraesuis (Sc); assay: as above; format: cell-based, Salmonella choleraesuis ATCC 10708; details: Salmonella enterica, 48 hours
Description: as §1, §2, §3, §4, §5, §6, §7

[4] = test system: Aspergillus niger (An); assay: Minimum inhibitory concentration (MIC), yeast/fungi in malt yeast agar; format: cell-based, Aspergillus niger ATCC 16404; details: 30° C., 72 hours for fungi
Description: as §1
Malt yeast agar is prepared by adding 3 g yeast extract and 45 g malt agar per liter of deionized water. The specific agar is dispensed in 30 mL aliquots into 25×200 mm test tubes, capped and autoclaved for 15 minutes at 115° C.
as §3
The inoculation with the yeast and fungi is accomplished as follows. Cultures of yeast and fungi are incubated for seven days on malt yeast agar at 30° C. These cultures are used to prepare suspensions by the following procedure. A suspension of each organism is prepared by adding 10 mL of sterile saline and 10 microliters of octylphenoxy polyethoxy ethanol to the agar slant of yeast or fungi. The sterile saline/octylphenoxy polyethoxy ethanol solution is then agitated with a sterile swab to suspend the microorganism grown on the slant. Each resulting suspension is diluted into sterile saline (1 part suspension to 9 parts sterile saline). Aliquots of these dilutions are placed in individual wells of Steer's Replicator and petri plates inoculated as previously described. The petri plates are incubated at 30° C. and read after 48 hours for yeast and 72 hours for fungi.
as §6, §7

[5] = test system: marine organisms; assay: Marine antifouling activity, coated test panels exposed to marine environment; details: scale 10 (completely free of growth) to 0 (completely covered); for Marine Antifouling Rating, 6 Week Test, Bottom Panel / Marine Antifouling Rating, 6 Week Test, Top Panel: 6 weeks; for Marine Antifouling Rating, 6 Week Test, Bottom Panel / Marine Antifouling Rating, 15 Week Test, Bottom Panel: bottom panel (black background); for Marine Antifouling Rating, 6 Week Test, Top Panel / Marine Antifouling Rating, 15 Week Test, Top Panel: top panel (white background); for Marine Antifouling Rating, 15 Week Test, Bottom Panel / Marine Antifouling Rating, 15 Week Test, Top Panel: 15 weeks
Description: Test panels are prepared from clear, rigid polyvinyl chloride film that is 0.381×10^-3 m thick and has one textured surface. The test panels are 0.1524 m by 0.1524 m squares that have 0.00635 m holes punched at corners on 0.127 m centers. A 0.102 square template, with a 0.067 m diameter hole at the center, is attached to the center of the textured surface of the test panels.
A candidate marine antifoulant compound (1.0 g) is stirred into a resinous latex binder (9.0 g). A portion of the compound/binder mixture (1.5 g) is added to the center of the test panel and uniformly spread over the circular area inside the template.
Water is added dropwise as needed to properly spread the compound/binder mixture. The template prevents the compound/binder mixture from spreading beyond the uncovered area. […] The template is then removed. The test panel is then allowed to dry for 8 to 12 hours at room temperature.
Two test panels are prepared for each candidate marine antifoulant compound. Two control test panels are also prepared by only treating with the resinous latex binder. One test panel of each candidate marine […] compound is attached over a white background to the topside of an exposure support apparatus. The second test panel is attached over a black background to the underside of the exposure support apparatus. The exposure support apparatus is placed horizontally 0.0254 m under a marine surface with the white background topside facing up.
After being removed from the exposure support apparatus, each test panel is inspected and rated for marine organism growth on both the treated and untreated areas of the test panel. The marine organisms present on the treated and untreated areas are noted. The presence of algae spores and bacterial slime are noted but not included in rating each test panel. The test panels are rated on a scale from 10 (representing completely free of marine organism growth) to 0 (representing completely covered with marine organism growth).
In addition, test panels were prepared using tributyl tin oxide, a known marine antifouling compound.

Compound | MIC ([1]; nutrient agar pH 6.8, 30° C.) [µg/mL] | MIC ([1]; nutrient agar pH 8.2, 30° C.) [µg/mL] | MIC ([2]; nutrient agar pH 6.8, 30° C.) [µg/mL] | MIC ([2]; nutrient agar pH 8.2, 30° C.) [µg/mL] | MIC ([3]; nutrient agar pH 6.8, 30° C.) [µg/mL] | MIC ([3]; nutrient agar pH 8.2, 30° C.) [µg/mL] | MIC [4] [µg/mL] | Marine Antifouling Rating, 6 Week Test, Bottom Panel [5] | Marine Antifouling Rating, 6 Week Test, Top Panel [5] | Marine Antifouling Rating, 15 Week Test, Bottom Panel [5] | Marine Antifouling Rating, 15 Week Test, Top Panel [5]
N#CSCSc1nnnn1C1CCCCC1 [X, 1-(Cyclohexyl)-5-thiomethylthiocyanato-1H-tetrazole] | 500 (≈ 1960 µM) | 500 (≈ 1960 µM) | 250 (≈ 979 µM) | 250 (≈ 979 µM) | 250 (≈ 979 µM) | 500 (≈ 1960 µM) | 5 (≈ 19.6 µM) | 10 | 9 | 8 | 4
N#CSCSc1nnnn1-c1cccc(Cl)c1 [II, 1-(3-Chlorophenyl)-5-thiomethylthiocyanato-1H-tetrazole] | 500 (≈ 1760 µM) | 250 (≈ 881 µM) | – | 500 (≈ 1760 µM) | 500 (≈ 1760 µM) | 500 (≈ 1760 µM) | < 10 | 10 | 9 | 6 | 9
Cc1cccc(-n2nnnc2SCSC#N)c1 [VI, 1-(3-Methylphenyl)-5-thiomethylthiocyanato-1H-tetrazole] | 500 (≈ 1900 µM) | 500 (≈ 1900 µM) | – | 250 (≈ 949 µM) | 500 (≈ 1900 µM) | 500 (≈ 1900 µM) | 5 (≈ 19 µM) | 10 | 9 | 9 | 8
N#CSCSc1nnnn1-c1ccc(Cl)cc1 [III, 1-(4-Chlorophenyl)-5-thiomethylthiocyanato-1H-tetrazole] | 25 (≈ 88.1 µM) | 50 (≈ 176 µM) | – | 25 (≈ 88.1 µM) | 25 (≈ 88.1 µM) | 100 (≈ 352 µM) | < 1 | 9 | 9 | 1 | 4
